Experimental data: patent publication US20240325398A1, “COMBINATION THERAPIES” (Infinity Pharmaceuticals, Inc., priority 2014, published 2024)

How the values were obtained:
[1] = Tolerability and pharmacokinetics of Compound 1 with dexamethasone in non-tumor bearing mice; format: in vivo
Experimental: The effects of a combination of Compound 1 and dexamethasone were assessed in vivo in non-tumor bearing mice. Dexamethasone is an inducer of CYP2B6 and CYP3A4 and thus might be expected to decrease exposure of Compound 1. Tolerability of the combination was assessed in non-tumor bearing CD17.SCID female mice. Treatment was carried out for 14 days using the following treatment groups: 1) Vehicle 1 (5% NMP+95% PEG400)+Vehicle 2 (saline); 2) Compound 1 (50 mg/kg, QD, PO)+Vehicle 2; 3) Vehicle 1+Dex 1 (5 mg/kg, Q3D, IP); 4) Compound 1+Dex 1; 5) Vehicle 1+Dex 2 (1 mg/kg, Q3D, IP); 6) Compound 1+Dex 2. PEG400 refers to polyethylene glycol-400. NMP refers to N-methyl-2-pyrrolidone. Dex refers to dexamethasone. Q3D refers to administration every third day. PO refers to oral administration. IP refers to intraperitoneal administration. Plasma samples were collected on day 14 at the trough, 1, 2, 4, and 6 h post dose for pharmacokinetic analysis.

CLL = assay: Clinical trial, Compound 1 monotherapy in a patient with CLL; format: in vivo, human; settings: one CLL patient
Farage = assay: Combination study, ATPLite 72 h, dose matrix (Synergy Score, CI50); settings: Farage
Experimental: (§1) Cells are thawed from a liquid nitrogen preserved state. Once cells have been expanded and divide at their expected doubling times, screening begins. Cells are seeded in growth media in either black 1536-well or 384-well tissue culture treated plates. Cells are then equilibrated in assay plates via centrifugation and placed in incubators attached to the Dosing Modules at 37° C. for 24 hours before treatment. […] These Tzero (To) plates are read using ultra-sensitive luminescence on Envision plate readers (Perkin Elmer). Treated assay plates are incubated with compound for 72 hours. After 72 hours, plates are developed for endpoint analysis using ATPLite. All data points are collected via automated processes, quality controlled and analyzed using Zalicus software.
(§2) where T is treated cell count and V is untreated (vehicle) cell count (at 72 hours). I ranges from 0% (when T=V) to 100% (when T=0). […] The measure of effect in the experiment can be the inhibition of cellular response relative to the untreated level (vehicle alone). […] The inhibition ranges from 0% at the untreated level to 100% when T=0. Inhibition levels are negative for agents that actually increase levels. Other effect measures, such as an activity ratio r=T/V may be more appropriate for some assays. When activity ratios (e.g, fold increase over stimulated control) are being used, the effect can be measured using an induction 1=ln(T/V). With this definition, all effect expressions are the same as for inhibition.
(§3) Growth Inhibition (GI) is used as a measure of cell viability. […] A GI reading of 100% represents complete growth inhibition—T72 compound-treated and T0 vehicle signals are matched. […] A GI reading of 200% represents complete death of all cells in the culture well. Compounds reaching an activity plateau of GI 200% are considered cytotoxic. GI is calculated by applying the following test and equation:
(§4) Combination analysis data were collected in a 6×6 dose matrix. Synergy is calculated by comparing a combination's response to those of its single compound, against the drug-with-itself dose-additive reference model. Deviations from dose additivity may be assessed visually on an isobologram or numerically with a Combination Index (CI). […] Additive effect is CI=1.0. […] Antagonistic effect is CI>1.0.
The isobologram was drawn by identifying the locus of concentrations that correspond to crossing the indicated inhibition level. This is done by finding the crossing point for each single agent concentration in a dose matrix across the concentrations of the other single agent. Practically, each vertical concentration CY is held fixed while a bisection algorithm is used to identify the horizontal concentration CX in combination with that vertical dose that gives the chosen effect level in the response surface Z(CX,CY). These concentrations are then connected by linear interpolation to generate the isobologram display. For synergistic interactions, the isobologram contour fall below the additivity threshold and approaches the origin, and an antagonistic interaction would lie above the additivity threshold. The error bars represent the uncertainty arising from the individual data points used to generate the isobologram. The uncertainty for each crossing point is estimated from the response errors using bisection to find the concentrations where Z−αZ(CX,CY) and Z+σZ(CX,CY) cross Icut, where αZ is the standard deviation of the residual error on the effect scale.
(§5) To measure combination effects in excess of Loewe additivity, a scalar measure to characterize the strength of synergistic interaction termed the Synergy Score is devised. The Synergy Score is calculated as:
The fractional inhibition for each component agent and combination point in the matrix is calculated relative to the median of all vehicle-treated control wells.

SU-DHL-10-epst = assay: as above
Experimental: as §1
The measure of effect in the experiment can be the inhibition of cellular response relative to the untreated level (vehicle alone). […] The inhibition ranges from 0% at the untreated level to 100% when T=0. Inhibition levels are negative for agents that actually increase levels.
as §3, §4, §5
(§6) The fractional inhibition for each component agent and combination point in the matrix is calculated relative to the median of all vehicle-treated control wells. The Synergy Score equation integrates the experimentally-observed activity volume at each point in the matrix in excess of a model surface numerically derived from the activity of the component agents using the Loewe model for additivity. Additional terms in the Synergy Score equation (above) are used to normalize for various dilution factors used for individual agents and to allow for comparison of synergy scores across an entire experiment. The inclusion of positive inhibition gating or an Idata multiplier removes noise near the zero effect level, and biases results for synergistic interactions at that occur at high activity levels.
Loewe Volume (Loewe Vol) is used to assess the overall magnitude of the combination interaction in excess of the Loewe additivity model. Loewe Volume is particularly useful when distinguishing synergistic increases in a phenotypic activity (positive Loewe Volume) versus synergistic antagonisms (negative Loewe Volume). […] This model defines additivity as a non-synergistic combination interaction where the combination dose matrix surface should be indistinguishable from either drug crossed with itself. The calculation for Loewe additivity is:

RL = assay: as above
SUDHL6 = assay: Combination study of Example 1 (data not shown); format: cell-based; settings: combination with Compound 1, SUDHL6 cell line
From the text: The method is described as follows.
Additive effect is CI=1.0. […] Antagonistic effect is CI>1.0.

HBL-1 = assay: Combination study, ATPLite 72 h, dose matrix (Synergy Score, CI50)
OCI-Ly3 = assay: as above
KARPAS-299 = assay: as above; settings: combination with Compound 1
GRANTA-519 = assay: as above; settings: combination with Compound 1
Experimental: as §1, §2, §3, §4, §5, §6
(§7) Loewe Volume (Loewe Vol) is used to assess the overall magnitude of the combination interaction in excess of the Loewe additivity model. Loewe Volume is particularly useful when distinguishing synergistic increases in a phenotypic activity (positive Loewe Volume) versus synergistic antagonisms (negative Loewe Volume). […] This model defines additivity as a non-synergistic combination interaction where the combination dose matrix surface should be indistinguishable from either drug crossed with itself.

Jeko-1 = assay: as above; settings: combination with Compound 1
Experimental: as §1, §2, §3, §4, §5, §6, §7

Mino = assay: as above; settings: combination with Compound 1
Experimental: as §1, §2, §3, §4, §5, §6, §7

[2] = as above; settings: combination with Compound 1; OPM-2
Experimental: as §1, §2, §3, §4, §5, §6, §7

OMP-2 = assay: as above; settings: combination with Compound 1; OPM-2
Experimental: as §1, §2, §3, §4, §5, §6, §7

[3] = combination with CAL-101, Example 2
[4] = combination with Cmpd 1, Example 2
[5] = combination with Compound 1, 72 h
[6] = combination with CAL-101, OCT-Ly3, Example 2
[7] = combination with Cmpd 1, OCT-Ly3, Example 2
[8] = combination with Compound 1, OCI-Ly3, 72 h

## C[C@H](Nc1ncnc2[nH]cnc12)c1cc2cccc(Cl)c2c(=O)n1-c1ccccc1 [Compound 1, (S)-3-(1-((9H-purin-6-yl)amino)ethyl)-8-chloro-2-phenylisoquinolin-1(2H)-one]
[1]; 50 mg/kg Compound 1 PO in combination with dexamethasone 5 mg/kg Q3D, versus Compound 1 alone
  Compound 1 plasma exposure: decrease
[1]; 50 mg/kg Compound 1 plus 1 mg/kg dexamethasone (Q3D) versus 50 mg/kg Compound 1 alone
  mean plasma concentration of Compound 1: relatively similar
[1]; co-administered with higher dose of dexamethasone, 5 mg/kg
  decrease of Compound 1 plasma exposure: about 30%
[1]; single agent versus combination with dexamethasone 1 mg/kg
  degree of Compound 1 exposure: similar
CLL; 25 mg bid, C5D1, ALC=257 at C1D1
  Absolute lymphocyte count (ALC): 134
CLL; 25 mg bid, after C7 (cycle 7), STK11 copy loss detected at C5D1
  clinical response: progressed
CLL; monotherapy 25 mg bid, C3D1 (cycle 3, day 1)
  clinical response: partial response
Farage; combination with Dexamethasone
  CI50 growth inhibition: U (U=0.7 to <1)
  CI50 inhibition: S (S=0.01 to <0.5)
  Synergy Score growth inhibition: A3 (A3=>3)
  Synergy Score inhibition: A3 (A3=>3)
Farage; combination with LEE011
  CI50 growth inhibition: W (W=≥1)
  CI50 inhibition: W (W=≥1)
  Synergy Score growth inhibition: A1 (A1=0.0001 to <1)
  Synergy Score inhibition: A1 (A1=0.0001 to <1)
Farage; combination with PCI-32765
  CI50 growth inhibition: S (S=0.01 to <0.5)
  CI50 inhibition: S (S=0.01 to <0.5)
  Synergy Score growth inhibition: A3 (A3=>3)
  Synergy Score inhibition: A3 (A3=>3)
Farage; combination with PD-0332991
  CI50 growth inhibition: T (T=0.5 to <0.7)
  CI50 inhibition: S (S=0.01 to <0.5)
  Synergy Score growth inhibition: A2 (A2=1 to <3)
  Synergy Score inhibition: A2 (A2=1 to <3)
SU-DHL-10-epst; combination with Dexamethasone
  CI50 growth inhibition: S (S=0.01 to <0.5)
  CI50 inhibition: S (S=0.01 to <0.5)
  Synergy Score growth inhibition: A3 (A3=>3)
  Synergy Score inhibition: A3 (A3=>3)
SU-DHL-10-epst; combination with LEE011
  CI50 growth inhibition: S (S=0.01 to <0.5)
  CI50 inhibition: S (S=0.01 to <0.5)
  Synergy Score growth inhibition: A3 (A3=>3)
  Synergy Score inhibition: A3 (A3=>3)
SU-DHL-10-epst; combination with PCI-32765
  CI50 growth inhibition: S (S=0.01 to <0.5)
  CI50 inhibition: S (S=0.01 to <0.5)
  Synergy Score growth inhibition: A3 (A3=>3)
  Synergy Score inhibition: A3 (A3=>3)
SU-DHL-10-epst; combination with PD-0332991
  CI50 growth inhibition: S (S=0.01 to <0.5)
  CI50 inhibition: S (S=0.01 to <0.5)
  Synergy Score growth inhibition: A3 (A3=>3)
  Synergy Score inhibition: A3 (A3=>3)
RL; combination with Dexamethasone
  CI50 growth inhibition: T (T=0.5 to <0.7)
  CI50 inhibition: T (T=0.5 to <0.7)
  Synergy Score growth inhibition: A3 (A3=>3)
  Synergy Score inhibition: A3 (A3=>3)
RL; combination with LEE011
  CI50 growth inhibition: T (T=0.5 to <0.7)
  CI50 inhibition: U (U=0.7 to <1)
  Synergy Score growth inhibition: A2 (A2=1 to <3)
  Synergy Score inhibition: A1 (A1=0.0001 to <1)
RL; combination with PCI-32765
  CI50 growth inhibition: S (S=0.01 to <0.5)
  CI50 inhibition: S (S=0.01 to <0.5)
  Synergy Score growth inhibition: A2 (A2=1 to <3)
  Synergy Score inhibition: A2 (A2=1 to <3)
RL; combination with PD-0332991
  CI50 growth inhibition: S (S=0.01 to <0.5)
  CI50 inhibition: S (S=0.01 to <0.5)
  Synergy Score growth inhibition: A2 (A2=1 to <3)
  Synergy Score inhibition: A2 (A2=1 to <3)

## C[C@@H]1C[C@H]2[C@@H]3CCC4=CC(=O)C=C[C@]4(C)[C@@]3(F)[C@@H](O)C[C@]2(C)[C@@]1(O)C(=O)CO [dexamethasone, (8S,9R,10S,11S,13S,14S,16R,17R)-9-Fluoro-11,17-dihydroxy-17-(2-hydroxyacetyl)-10,13,16-trimethyl-6,7,8,9,10,11,12,13,14,15,16,17-dodecahydro-3H-cyclopenta[a]phenanthren-3-one]
SUDHL6
  synergy of the combination: significant synergy
HBL-1; [3]
  CI50 growth inhibition: T (T=0.5 to <0.7)
  CI50 inhibition: S (S=0.01 to <0.5)
  Synergy Score growth inhibition: A2 (A2=1 to <3)
  Synergy Score inhibition: A2 (A2=1 to <3)
HBL-1; [4]
  CI50 growth inhibition: T (T=0.5 to <0.7)
  CI50 inhibition: U (U=0.7 to <1)
  Synergy Score growth inhibition: A2 (A2=1 to <3)
  Synergy Score inhibition: A2 (A2=1 to <3)
HBL-1; [5]
  CI50 growth inhibition: S (S=0.01 to <0.5)
  CI50 inhibition: U (U=0.7 to <1)
  Synergy Score growth inhibition: A3 (A3=>3)
  Synergy Score inhibition: A2 (A2=1 to <3)
OCI-Ly3; [6]
  Synergy Score growth inhibition: A1 (A1=0.0001 to <1)
  Synergy Score inhibition: A1 (A1=0.0001 to <1)
OCI-Ly3; [7]
  CI50 growth inhibition: W (W=≥1)
  Synergy Score growth inhibition: A1 (A1=0.0001 to <1)
  Synergy Score inhibition: A1 (A1=0.0001 to <1)
OCI-Ly3; [8]
  CI50 growth inhibition: U (U=0.7 to <1)
  Synergy Score growth inhibition: A1 (A1=0.0001 to <1)
  Synergy Score inhibition: A1 (A1=0.0001 to <1)
Farage; [5]
  CI50 growth inhibition: U (U=0.7 to <1)
  CI50 inhibition: T (T=0.5 to <0.7)
  Synergy Score growth inhibition: A3 (A3=>3)
  Synergy Score inhibition: A3 (A3=>3)
SU-DHL-10-epst; [5]
  CI50 growth inhibition: S (S=0.01 to <0.5)
  CI50 inhibition: S (S=0.01 to <0.5)
  Synergy Score growth inhibition: A3 (A3=>3)
  Synergy Score inhibition: A3 (A3=>3)
RL; [5]
  CI50 growth inhibition: S (S=0.01 to <0.5)
  CI50 inhibition: S (S=0.01 to <0.5)
  Synergy Score growth inhibition: A3 (A3=>3)
  Synergy Score inhibition: A3 (A3=>3)
KARPAS-299
  Synergy Score growth inhibition: A1 (A1=0.0001 to <1)
  Synergy Score inhibition: A1 (A1=0.0001 to <1)
GRANTA-519
  CI50 growth inhibition: S (S=0.01 to <0.5)
  Synergy Score growth inhibition: A3 (A3=>3)
  Synergy Score inhibition: A1 (A1=0.0001 to <1)
Jeko-1
  CI50 growth inhibition: U (U=0.7 to <1)
  CI50 inhibition: S (S=0.01 to <0.5)
  Synergy Score growth inhibition: A3 (A3=>3)
  Synergy Score inhibition: A3 (A3=>3)
Mino
  CI50 growth inhibition: S (S=0.01 to <0.5)
  CI50 inhibition: S (S=0.01 to <0.5)
  Synergy Score growth inhibition: A3 (A3=>3)
  Synergy Score inhibition: A2 (A2=1 to <3)
[2]
  CI50 growth inhibition: S (S=0.01 to <0.5)
OMP-2
  CI50 inhibition: U (U=0.7 to <1)
  Synergy Score growth inhibition: A2 (A2=1 to <3)
  Synergy Score inhibition: A1 (A1=0.0001 to <1)
